Test results taken from paper PMC12216609, “Inhibitors of eIF1A-ribosome interaction unveil uORF-dependent regulation of translation initiation and antitumor and antiviral effects” (The EMBO Journal, 2025).
Where “and” joins values, the source holds several entries; their conditions need not be identical. Equal entries are not always repeated. Where two headings read alike, the source gives them in different places.

Columns and labels:
[1] = biological target: T1, RPS10 (Homo sapiens, UniProt P46783); type: binding
T1 construct: made in house; host or cells: E. coli BL-21

[2] = tested on: IRF7 5'UTR firefly luciferase reporter in HEK293T cells; conditions: for Reference vs IRF7 (Final data, Fig. 1E): 1/Result, relative to DMSO; for LONG (summary - All), normalized to DMSO / Long: Normalized to average DMSO: Long reporter; for LONG (summary - All), normalized to DMSO / SHORT (summary - All), normalized to DMSO: individual replicates, outliers excluded, DMSO = 1; for SHORT (summary - All), normalized to DMSO: Short reporter; for average ( long vs short ratio): summary - All; for Long: Normalized to average DMSO: data section, GFP-corrected, per experiment;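 on all read-outs here: luciferase signal corrected by a co-transfected GFP reporter for transfection efficiency, read after overnight compound exposure, with Long and Short reporters differing in 5'UTR length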
[3] = biological target: T2, eIF1A-RPS10 interaction (Homo sapiens, UniProt P46783+P47813); assay: Split-Renilla luciferase eIF1A-RPS10 interaction screen, dose-response; type: biochemical; conditions: summary table; read-out: IC50 concentration (µM), IC50 screen
T2 construct: made in house; host or cells: E. coli BL21 (PRSFduet); unpurified lysate supernatant
Experimental: While knockdown (KD) studies of eIF1A provided valuable insights into its role in mammalian cell translation (Sehrawat et al, [2019]), this approach presents several limitations. First, it fails to elucidate the functional significance of the opposing functions of eIF1A N- and C-terminal tails with respect to scanning and start codon fidelity. Second, the extended duration required for achieving efficient knockdown, 48–72 h, impairs our ability to differentiate between direct and indirect effects. To overcome these constraints, we set out to develop small-molecule inhibitors targeting eIF1A. Guided by structural and biochemical studies showing eIF1A binding to the small ribosomal subunit at the A-site and interacting directly with RPS10 through its N-terminal tail (Haimov et al, [2017]; Passmore et al, [2007]; Sehrawat et al, [2019]), our approach focused on disrupting the interaction between eIF1A and RPS10. […] The interaction between eIF1A and RPS10 brings the two parts together, leading to the reconstitution of the enzymatic activity (Haimov et al, [2017]). In this system, the spatial arrangement of the two RL parts is critical for the enzymatic activity, making it sensitive not only to direct interference with the interacting proteins but also to changes in the conformation of the fused proteins. In the eIF1A-RPS10 split-RL pair, the C-terminus of eIF1A is fused to N-RL (Fig. 1A), in order to maintain the NTT accessible to RPS10 binding. This pair was cloned and expressed in bacteria as recombinant proteins and used to screen a library of ~50,000 small molecules from diverse sources (Ashkenazi et al, [2017]).
eIF1A-ΔC-Renilla and RPS10-ΔN-Renilla were transformed into BL21 E. coli by heat shock transformation. A bacterial starter of 5 ml LB was incubated overnight at 37 °C and transferred into 1 L LB for incubation at 37 °C until OD ~ 0.5–0.7. Next, protein expression was induced with 0.5 mM IPTG, and bacterial cells were incubated overnight at 16 °C. Bacterial cell pellet was collected after centrifugation (3000 RPM, 15 min), resuspended in 20 ml TKE buffer (Tris 10 mM, KCl 100 mM, EDTA 0.1 mM), sonicated (bath sonicator, 24 cycles of 30 s) and centrifuged again (15000 RPM, 30 min). Supernatants were collected, analyzed for RL activity, and then used for high throughput drug screen (HTS) at the Weizmann G-INCPM HTS unit as described (Ashkenazi et al, [2017]). In addition to the standard controls of this protocol, the two parts of the split RL, without eIF1A or RPS10, were tested as controls. Selected compounds were purchased from Sigma-Aldrich and Enamine. Compound powders were resuspended in DMSO for a final concentration of 10 mM and stored at −20 °C.

[4] = tested on: cap-proximal AUG GFP reporter in HEK293T cells; type: cell-based; conditions: GFP WB densitometry; 20 µM overnight; dmso 0.965946
Excerpt: Translation from an AUG preceded by a very short 5'UTR (less than 30 nt) is usually inefficient and frequently bypassed, resulting in initiation from a downstream AUG, a phenomenon known as leaky scanning. […] To examine the impact of 1Ais on short 5'UTR initiation, we used a GFP reporter gene containing an AUG located 16 nt downstream from the 5' end followed by a second in-frame downstream AUG (Fig. 1F; Appendix Fig. S1B). Cells were transfected with this GFP reporter gene followed by exposure to DMSO (vehicle) and 1Ais. Initiations from upstream (US) or downstream (DS) AUGs were determined by western blot (WB) with anti-GFP antibodies and the ratio between the US and DS AUG was determined.
For the analysis of translation from very short 5'UTR and Leaky scanning, HEK293T cells were transfected with a GFP (20 ng/well) reporter gene driven by a cap-proximal and downstream AUGs (Elfakess et al, [2011]) together with a luciferase reporter gene (100 ng/well) as normalizing control and treated with 20 µM of 1Ais as described above. GFP levels were determined by Western blot (WB) (GFP antibody, Abcam #ab290) and quantified by densitometry (ImageJ) and normalized to the measured luciferase activity.
HEK293T cells were transfected with the GFP reporter gene schematically shown on the top. The first
AUG is […] from the 5’ end and the downstream AUG is in the same frame. Six hours after transfection, cells were treated with 1Ais. After overnight exposure to 1Ais, GFP expression was analyzed by WB using anti -GFP antibodies.
US/DS ratio was determined by densitometry and represents the long protein expression (upstream AUG, US) vs the […]
biological replicates. (C-D) Analysis of reporter genes mRNA levels after 1Ais treatment.

[5] = biological target: T3, eIF1A (Homo sapiens, UniProt P47813); type: binding; conditions: for fluorescence ratio, eIF1A: background-corrected, relative to DMSO or lowest 1Ai concentration, replicate columns; for WT eIF1A IC50: fluorescence binding
T3 construct: His-bdSUMO (cleaved yes); made in house; host or cells: E. coli BL-21

[6] = read-out: IC50 (line under RPS10 binding data)
[7] = summary table, fluorescence binding assay, read-out: IC50 concentration (µM), RPS10
[8] = summary table, fluorescence binding assay

T2 sequence (P47813 whole entry, one chain of several): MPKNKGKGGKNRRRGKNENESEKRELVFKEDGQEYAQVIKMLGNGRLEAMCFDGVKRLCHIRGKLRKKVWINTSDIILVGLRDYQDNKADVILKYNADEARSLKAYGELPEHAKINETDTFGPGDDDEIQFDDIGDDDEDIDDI
T3 sequence (P47813 whole entry): as the sequence (P47813 whole entry, one chain of several) above

C=CCNC(=O)CN1CCN(Cc2nc3cc(-c4ccc(Cl)cc4)sc3c(=O)[nH]2)CC1 [1Ai-1524]
RPS10 fluorescence ratio to control ([1]; 1Ai conc. 0.25 uM): 1.173 | RPS10 fluorescence ratio to control ([1]; 1Ai conc. 0.5 uM): 1.067 | RPS10 fluorescence ratio to control ([1]; 1Ai conc. 1 uM): 0.76 | RPS10 fluorescence ratio to control ([1]; 1Ai conc. 2 uM): 0.8336 | RPS10 fluorescence ratio to control ([1]; 1Ai conc. 4 uM): 0.607 | RPS10 fluorescence ratio to control ([1]; 1Ai conc. 8 uM): 0.7612 | RPS10 fluorescence ratio to control ([1]; 1Ai conc. 16 uM): 0.4083 | RPS10 fluorescence ratio to control ([1]; 1Ai conc. 32 uM): 0.3654 | RPS10 fluorescence ratio to control ([1]; 1Ai conc. 64 uM): 0.4197 | RPS10 fluorescence ratio to control ([1]; 1Ai conc. 256 uM): 0.05131 | IC50 [1, 6]: 16.8 µM | IC50 ([1]; read-out: RPS10 IC50): 16.8 µM | IC50 [1, 7]: 16.8 µM | Reference vs IRF7 (Final data, Fig. 1E) ([2]; 20 µM): 1.878 | LONG (summary - All), normalized to DMSO ([2]; 20 µM): 0.62 and 0.21 and 0.43 and 0.52 | SHORT (summary - All), normalized to DMSO ([2]; 20 µM): 0.50 and 0.66 and 0.41 | average ( long vs short ratio) ([2]; 20 µM): 0.848 | IC50 [3]: 30 µM | US/DS ratio, average [4]: 0.7201 | fluorescence ratio, eIF1A ([5]; 1Ai conc. 0.25 uM): 1.099 and 1 | fluorescence ratio, eIF1A ([5]; 1Ai conc. 0.5 uM): 1.123 and 1.057 | fluorescence ratio, eIF1A ([5]; 1Ai conc. 1 uM): 1.12 and 1.013 | fluorescence ratio, eIF1A ([5]; 1Ai conc. 2 uM): 1.158 and 0.9647 | fluorescence ratio, eIF1A ([5]; 1Ai conc. 4 uM): 1.086 and 0.8847 | fluorescence ratio, eIF1A ([5]; 1Ai conc. 8 uM): 0.9254 and 0.8076 | fluorescence ratio, eIF1A ([5]; 1Ai conc. 16 uM): 0.9496 and 0.7767 | fluorescence ratio, eIF1A ([5]; 1Ai conc. 32 uM): 1.01 and 0.848 | fluorescence ratio, eIF1A ([5]; 1Ai conc. 64 uM): 0.9931 and 0.7702 | fluorescence ratio, eIF1A ([5]; 1Ai conc. 256 uM): 1.036 and 1.149 | WT eIF1A IC50 [5]: No binding | IC50 concentration (µM), WT eIF1A [5, 8]: No binding

COc1ccc(C=C2CSc3ccc(Cl)cc3C2=O)cc1O [1Ai-5175]
RPS10 fluorescence ratio to control ([1]; 1Ai conc. 0.25 uM): 0.6015 | RPS10 fluorescence ratio to control ([1]; 1Ai conc. 0.5 uM): 0.7077 | RPS10 fluorescence ratio to control ([1]; 1Ai conc. 1 uM): 1.288 | RPS10 fluorescence ratio to control ([1]; 1Ai conc. 2 uM): 1.156 | RPS10 fluorescence ratio to control ([1]; 1Ai conc. 4 uM): 1.025 | RPS10 fluorescence ratio to control ([1]; 1Ai conc. 8 uM): 0.4718 | RPS10 fluorescence ratio to control ([1]; 1Ai conc. 16 uM): 0.1497 | RPS10 fluorescence ratio to control ([1]; 1Ai conc. 32 uM): 0.1533 | RPS10 fluorescence ratio to control ([1]; 1Ai conc. 64 uM): 0.2655 | RPS10 fluorescence ratio to control ([1]; 1Ai conc. 256 uM): 0.2335 | IC50 [1, 6]: 6.7 µM | IC50 ([1]; read-out: RPS10 IC50): 6.7 µM | IC50 [1, 7]: 6.7 µM | Reference vs IRF7 (Final data, Fig. 1E) ([2]; 20 µM): 2.369 | LONG (summary - All), normalized to DMSO ([2]; 5 µM): 0.41 and 0.69 and 0.67 | SHORT (summary - All), normalized to DMSO ([2]; 5 µM): 1.04 and 2.35 and 0.82 | Long: Normalized to average DMSO ([2]; 5 µM): 0.4067 and 0.6939 and 0.6743 | average ( long vs short ratio) ([2]; 5 µM): 0.422 | IC50 [3]: 16 µM | US/DS ratio, average [4]: 1.243 | fluorescence ratio, eIF1A ([5]; 1Ai conc. 0.25 uM): 0.9293 and 0.8251 | fluorescence ratio, eIF1A ([5]; 1Ai conc. 0.5 uM): 0.9438 and 0.8466 | fluorescence ratio, eIF1A ([5]; 1Ai conc. 1 uM): 0.9705 and 0.8212 | fluorescence ratio, eIF1A ([5]; 1Ai conc. 2 uM): 0.5643 and 0.7297 | fluorescence ratio, eIF1A ([5]; 1Ai conc. 4 uM): 0.4919 and 0.7019 | fluorescence ratio, eIF1A ([5]; 1Ai conc. 8 uM): 0.4802 and 0.6176 | fluorescence ratio, eIF1A ([5]; 1Ai conc. 16 uM): 0.3895 and 0.4949 | fluorescence ratio, eIF1A ([5]; 1Ai conc. 32 uM): 0.3105 and 0.4413 | fluorescence ratio, eIF1A ([5]; 1Ai conc. 64 uM): 0.2231 and 0.3132 | fluorescence ratio, eIF1A ([5]; 1Ai conc. 256 uM): 0.1792 and 0.2884 | IC50 ([5]; eIF1A, from the titration data, read-out: IC50 (eIF1A titration block)): 6.02 µM | IC50 ([5]; summary table, fluorescence binding assay, read-out: IC50 concentration (µM), WT eIF1A): 6 µM

O=S(=O)(c1ccccc1)N1CCN(C2c3ccccc3-c3ccccc32)CC1 [1Ai-9025]
IC50 [1, 7]: 4.8 µM | Reference vs IRF7 (Final data, Fig. 1E) ([2]; 20 µM): 1.762 | LONG (summary - All), normalized to DMSO ([2]; 20 µM): 0.59 and 0.94 and 0.66 and 0.50 | SHORT (summary - All), normalized to DMSO ([2]; 20 µM): 1.30 and 0.73 and 1.51 | Long: Normalized to average DMSO ([2]; 20 µM, includes values excluded as outliers): 0.5873 and 0.9413 and 0.6597 and 0.4965 | average ( long vs short ratio) ([2]; 20 µM): 0.568 | IC50 [3]: 17 µM | US/DS ratio, average [4]: 0.7517 | fluorescence ratio, eIF1A ([5]; 1Ai conc. 0.25 uM): 0.9827 and 0.9579 | fluorescence ratio, eIF1A ([5]; 1Ai conc. 0.5 uM): 0.9655 and 0.9562 | fluorescence ratio, eIF1A ([5]; 1Ai conc. 1 uM): 0.9303 and 0.9366 | fluorescence ratio, eIF1A ([5]; 1Ai conc. 2 uM): 0.9516 and 0.9059 | fluorescence ratio, eIF1A ([5]; 1Ai conc. 4 uM): 0.9297 and 0.9235 | fluorescence ratio, eIF1A ([5]; 1Ai conc. 8 uM): 0.9058 and 0.9493 | fluorescence ratio, eIF1A ([5]; 1Ai conc. 16 uM): 0.9688 and 0.9828 | fluorescence ratio, eIF1A ([5]; 1Ai conc. 32 uM): 0.9874 and 1.077 | fluorescence ratio, eIF1A ([5]; 1Ai conc. 64 uM): 1.153 and 1.164 | fluorescence ratio, eIF1A ([5]; 1Ai conc. 256 uM): 1.25 and 1.3257 | WT eIF1A IC50 [5]: No binding | IC50 concentration (µM), WT eIF1A [5, 8]: No binding
